Values of other authors, collected in patent publication US7333894B2, “Methods for the diagnosis of hemodialysis patients and utilization of such methods to improve the administration of intravenous levocarnitine treatments to hemodialysis patients” (Sigma-Tau Pharmaceuticals, Inc., priority 2002, dated 2008).

Experiments:
[1] = hemodialysis patient, one dialysis session
[2] = intravenous administration at the end of a dialysis session, ESRD patients

Structure (SMILES): C[N+](C)(C)C[C@H](O)CC(=O)[O-] [carnitine, levocarnitine]
- carnitine present in the plasma removed during a dialysis session [1]: more than 70%
- time for plasma carnitine levels to return to pre-dialysis baseline levels [2]: 10 to 24 h
